From ChEMBL document CHEMBL1140786, “Synthesis of 4,5,6,7-tetrahydrothieno[3,2-c]pyridines and comparison with their isosteric 1,2,3,4-tetrahydroisoquinolines as inhibitors of phenylethanolamine N-methyltransferase” (Bioorg Med Chem, 2008)

Tests used:
[1] = target: Phenylethanolamine N-methyltransferase (Homo sapiens) (UniProt P11086); assay: Inhibition of human PNMT by radiochemical assay
[2] = target: Alpha-2 adrenergic receptor (Rattus norvegicus); assay: Displacement of [3H]clonidine from adrenergic alpha-2 receptor in Sprague-Dawley rat cortex
Homo sapiens = species on record: Homo sapiens; assay: Selectivity of Ki for human PNMT over Ki for rat alpha2 adrenoceptor
[3] = target: T1, Phenylethanolamine N-methyltransferase (Homo sapiens, UniProt P11086); assay: Inhibition of human PNMT by radiochemical assay
T1 sequence (P11086 whole entry): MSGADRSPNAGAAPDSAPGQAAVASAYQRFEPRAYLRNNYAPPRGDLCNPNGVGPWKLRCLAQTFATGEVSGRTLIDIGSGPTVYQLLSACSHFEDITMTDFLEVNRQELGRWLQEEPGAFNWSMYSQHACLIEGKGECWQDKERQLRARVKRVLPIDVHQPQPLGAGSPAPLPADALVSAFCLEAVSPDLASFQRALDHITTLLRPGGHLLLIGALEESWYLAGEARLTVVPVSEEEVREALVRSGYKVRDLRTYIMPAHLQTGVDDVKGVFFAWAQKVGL

SMILES | Ki [2] | other results
Cc1ccc2c(c1)CNCC2 |  | Ki [1]: 2 µM
NCc1cccs1 | 27 µM | Ratio Ki (Homo sapiens): 0.12; Ki [3]: 450 µM
CC(=O)c1cc2c(s1)CCNC2 | 9.8 µM | 
FC(F)(F)C1Cc2sc(Br)cc2CN1 (stereo not drawn) | > 1000 µM | 
FC(F)(F)C1Cc2sc3ccccc3c2CN1 (stereo not drawn) | > 500 µM | 
Cc1cc2c(s1)CCNC2 | 0.49 µM | 
CC1Cc2sc(Br)cc2CN1 (stereo not drawn) | 2.3 µM | 
O=[N+]([O-])C1=CC2CNCCC2S1 (stereo not drawn) | 18 µM | 
BrC1=CC2CNCCC2S1 (stereo not drawn) | 0.38 µM | 
C[C@H]1Cc2sc([N+](=O)[O-])cc2CN1 | 29 µM | 
c1ccc2c(c1)CCNC2 [1,2,3,4-TETRAHYDROISOQUINOLINE] |  | Ki [1]: 5 µM
CC1Cc2ccc(Br)cc2CN1 (racemic) | 1.1 µM | 
NCc1ccsc1 | 32 µM | Ratio Ki (Homo sapiens): 0.29; Ki [3]: 110 µM
CC(=O)c1ccc2c(c1)CNCC2 |  | Ki [1]: 5 µM
CC1Cc2ccccc2CN1 (racemic) |  | Ki [1]: 1.4 µM
C[C@@H]1Cc2sc([N+](=O)[O-])cc2CN1 | 13 µM | 
NC(=O)c1ccc2c(c1)CNCC2 |  | Ki [1]: 72 µM
CC1CC2SC=CC2CN1 (stereo not drawn) | 29 µM | 
FC(F)(F)C1CC2SC=CC2CN1 (stereo not drawn) | 1500 µM | 
CC1Cc2sc3ccccc3c2CN1 (racemic) |  | Ki [1]: 0.067 µM
NC(=O)c1cc2c(s1)CCNC2 | 4.1 µM | 
c1cc2c(s1)CCNC2 | 1.5 µM | 
N#Cc1cc2c(s1)CCNC2 | 16 µM | 
C[C@@H]1Cc2sc(C#N)cc2CN1 | 47 µM | 
NCCc1cccs1 | 1.2 µM | Ratio Ki (Homo sapiens): 0.004; Ki [3]: 300 µM
NCCc1ccccc1 [PHENETHYLAMINE] |  | Ki [1]: 220 µM
C[C@H]1Cc2sc(C#N)cc2CN1 | 130 µM | 
